In US20150344457A1, “METHODS OF INHIBITING PRMT5” (EPIZYME, INC., priority 2012, published 2015):

Tested on: Z-138 cells
Experiment: Z-138 Methylation Assay (In Cell Western for symmetric di-methyl arginine and DNA content)
Type: cell-based
Settings: Homo sapiens, Table A-2, 96 hours, symmetric di-methyl arginine, read-out: ICW EC50
Text: Z-138 suspension cells were purchased from ATCC (American Type Culture Collection, Manassas, Va.). RPMI/Glutamax medium, penicillin-streptomycin, heat inactivated fetal bovine serum, and D-PBS were purchased from Life Technologies, Grand Island, N.Y., USA. Odyssey blocking buffer, 800CW goat anti-rabbit IgG (H+L) antibody, and Licor Odyssey infrared scanner were purchased from Licor Biosciences, Lincoln, Nebr., USA. Symmetric di-methyl arginine antibody was purchased from EMD Millipore, Billerica, Mass., USA. 16% Paraformaldehyde was purchased from Electron Microscopy Sciences, Hatfield, Pa., USA.
Z-138 suspension cells were maintained in growth medium (RPMI 1640 supplemented with 10% v/v heat inactivated fetal bovine serum and 100 units/mL penicillin-streptomycin) and cultured at 37° C. under 5% CO2.
Cell Treatment, in Cell Western (ICW) for Detection of Symmetric Di-Methyl Arginine and DNA Content.
Z-138 cells were seeded in assay medium at a concentration of 50,000 cells per mL to a 384-well cell culture plate with 50 μL per well. Compound (100 nL) from 384 well source plates was added directly to 384 well cell plate. Plates were incubated at 37° C., 5% CO2 for 96 hours. After four days of incubation, 40 μL of cells from incubated plates were added to poly-D-lysine coated 384 well culture plates (BD Biosciences 356697). Plates were incubated at room temperature for 30 minutes then incubated at 37° C., 5% CO2 for 5 hours. After the incubation, 40 μL per well of 8% paraformaldehyde in PBS (16% paraformaldahyde was diluted to 8% in PBS) was added to each plate and incubated for 30 minutes. Plates were transferred to a Biotek 405 plate washer and washed 5 times with 100 μL per well of wash buffer (1×PBS with 0.1% Triton X-100 (v/v)). Next 30 μL per well of Odyssey blocking buffer were added to each plate and incubated 1 hour at room temperature. Blocking buffer was removed and 20 μL per well of primary antibody was added (symmetric di-methyl arginine diluted 1:100 in Odyssey buffer with 0.1% Tween 20 (v/v)) and plates were incubated overnight (16 hours) at 4° C. Plates were washed 5 times with 100 μL per well of wash buffer. Next 20 μL per well of secondary antibody was added (1:200 800CW goat anti-rabbit IgG (H+L) antibody, 1:1000 DRAQS (Biostatus limited) in Odyssey buffer with 0.1% Tween 20 (v/v)) and incubated for 1 hour at room temperature. The plates were washed 5 times with 100 μL per well wash buffer then 1 time with 100 μL per well of water. Plates were allowed to dry at room temperature then imaged on the Licor Odyssey machine which measures integrated intensity at 700 nm and 800 nm wavelengths. Both 700 and 800 channels were scanned.
First, the ratio for each well was determined by:
Each plate included fourteen control wells of DMSO only treatment (minimum inhibition) as well as fourteen control wells for maximum inhibition treated with 3 μM of a reference compound (Background wells). The average of the ratio values for each control type was calculated and used to determine the percent inhibition for each test well in the plate. Reference compound was serially diluted three-fold in DMSO for a total of nine test concentrations, beginning at 3 μM. Percent inhibition was determined and IC50 curves were generated using triplicate wells per concentration of compound.

Compound | EC50
O=C(COc1cccc2c1CNCC2)NCC(O)CN1CCc2ccccc2C1 (centres unmarked) [Compound A119] | 101 to 1000 nM
CN1CCc2cccc(OCC(=O)NCC(O)CN3CCc4ccccc4C3)c2C1 (centres unmarked) [Compound A120] | 1000 to 10000 nM
CC(=O)N1CCN(S(=O)(=O)c2ccccc2OCC(=O)NCC(O)CN2CCc3ccccc3C2)CC1 (centres unmarked) [Compound A122] | 1000 to 10000 nM
CNS(=O)(=O)c1ccccc1OCC(=O)NCC(O)CN1CCc2ccccc2C1 (centres unmarked) [Compound A123] | 101 to 1000 nM
O=C(COc1cccc2c1OCC(=O)N2)NCC(O)CN1CCc2ccccc2C1 (centres unmarked) [Compound A124] | 1000 to 10000 nM
CN(C)c1ncccc1OCC(=O)NCC(O)CN1CCc2ccccc2C1 (centres unmarked) [Compound A127] | 1000 to 10000 nM
O=C(COc1cccc2ncc(=O)[nH]c12)NCC(O)CN1CCc2ccccc2C1 (centres unmarked) [Compound A129] | 1000 to 10000 nM
CN1CCCC(c2ccccc2OCC(=O)NCC(O)CN2CCc3ccccc3C2)C1 (centres unmarked) [Compound A130] | 101 to 1000 nM
CN1CCC(c2ccccc2OCC(=O)NCC(O)CN2CCc3ccccc3C2)CC1 (centres unmarked) [Compound A134] | 1000 to 10000 nM
O=C(COc1ccccc1-c1ncc[nH]1)NCC(O)CN1CCc2ccccc2C1 (centres unmarked) [Compound A137] | 1000 to 10000 nM
CN(c1cccc(OCC(=O)NCC(O)CN2CCc3ccccc3C2)c1)S(C)(=O)=O (centres unmarked) [Compound A142] | 101 to 1000 nM
